Experimental data published in US7605156B2, “Methods for the use of inhibitors of cytosolic phospholipase A2” (Wyeth, priority 2001, dated 2009).

Target: T1, cPLA2 (Homo sapiens, UniProt P47712)
T1 sequence (P47712 1-749): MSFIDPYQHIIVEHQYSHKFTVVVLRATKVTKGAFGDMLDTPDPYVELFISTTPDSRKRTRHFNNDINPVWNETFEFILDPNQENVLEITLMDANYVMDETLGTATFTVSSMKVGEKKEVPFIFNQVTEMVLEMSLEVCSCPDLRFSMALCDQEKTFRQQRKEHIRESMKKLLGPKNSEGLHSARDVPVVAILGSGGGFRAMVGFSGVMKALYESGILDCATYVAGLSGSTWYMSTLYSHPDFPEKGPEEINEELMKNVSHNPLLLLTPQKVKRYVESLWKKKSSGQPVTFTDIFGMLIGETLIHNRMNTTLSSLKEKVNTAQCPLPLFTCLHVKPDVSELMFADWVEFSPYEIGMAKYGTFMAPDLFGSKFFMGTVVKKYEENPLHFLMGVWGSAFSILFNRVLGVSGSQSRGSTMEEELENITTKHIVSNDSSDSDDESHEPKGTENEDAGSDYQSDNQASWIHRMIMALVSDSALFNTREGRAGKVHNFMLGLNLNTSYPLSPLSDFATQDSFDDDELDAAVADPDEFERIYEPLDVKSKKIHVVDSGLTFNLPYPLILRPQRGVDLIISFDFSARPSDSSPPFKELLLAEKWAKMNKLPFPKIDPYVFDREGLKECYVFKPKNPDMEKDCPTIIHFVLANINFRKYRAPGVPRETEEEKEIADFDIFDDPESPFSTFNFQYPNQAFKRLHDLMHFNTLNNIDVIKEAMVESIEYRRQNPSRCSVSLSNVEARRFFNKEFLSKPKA
Assay: Coumarine assay (hydrolysis of 7-hydroxycoumarinyl 6-heptenoate)
Format: biochemical
Details: 60 μM 7-hydroxycoumarinyl 6-heptenoate, pH 7.5; read-out: Coumarin IC50

IC50 | Compound
200 nM | O=C(O)CCc1ccc(S(=O)(=O)CCc2c(CCNS(=O)(=O)c3ccccc3Cl)n(C(c3ccccc3)c3ccccc3)c3ccc(Cl)cc23)cc1 [Example 259, 3-[4-({2-[1-benzhydryl-5-chloro-2-(2-{[(2-chlorophenyl)sulfonyl]amino}ethyl)-1H-indol-3-yl]ethyl}sulfonyl)phenyl]propanoic acid]
200 nM | CC(C)(C)c1ccccc1S(=O)(=O)NCCc1c(CCOc2ccc(C(=O)O)cc2)c2cc(Cl)ccc2n1C(c1ccccc1)c1ccccc1 [Example 237, 4-{2-[1-benzhydryl-2-(2-{[(2-tert-butylphenyl)sulfonyl]amino}ethyl)-5-chloro-1H-indol-3-yl]ethoxy}benzoic acid]
160 nM | Cc1cccc(Cl)c1S(=O)(=O)NCCc1c(CCOc2ccc(C(=O)O)cc2)c2cc(Cl)ccc2n1C(c1ccccc1)c1ccccc1 [Example 227, 4-{2-[1-benzhydryl-5-chloro-2-(2-{[(2-chloro-6-methylphenyl)sulfonyl]amino}ethyl)-1H-indol-3-yl]ethoxy}benzoic acid]
900 nM | Cc1nc(-c2ccc(S(=O)(=O)NCCc3c(CCOc4ccc(C(=O)O)cc4)c4cc(Cl)ccc4n3C(c3ccccc3)c3ccccc3)s2)cs1 [Example 177, 4-(2-{1-benzhydryl-5-chloro-2-[2-({[5-(2-methyl-1,3-thiazol-4-yl)thien-2-yl]sulfonyl}amino)ethyl]-1H-indol-3-yl}ethoxy)benzoic acid]
100 nM | CC(C)Oc1ccccc1S(=O)(=O)NCCc1c(CCCc2ccc(C(=O)O)cc2)c2cc(Cl)ccc2n1C(c1ccccc1)c1ccccc1 [Example 186, 4-(3-{1-Benzhydryl-5-chloro-2-[2-(2-isopropoxy-benzenesulfonylamino)-ethyl]-1H-indol-3-yl}-propyl)benzoic acid]
200 nM | O=C(O)c1ccc(CCCc2c(CCNS(=O)(=O)c3ccccc3OCc3ccccc3)n(C(c3ccccc3)c3ccccc3)c3ccc(Cl)cc23)cc1 [Example 187, 4-(3-{1-Benzhydryl-2-[2-(2-benzyloxy-benzenesulfonylamino)-ethyl]-5-chloro-1H-indol-3-yl}-propyl)benzoic acid]
130 nM | O=C(O)c1ccc(CCCc2c(CCNS(=O)(=O)Cc3ccccc3[N+](=O)[O-])n(C(c3ccccc3)c3ccccc3)c3ccc(Cl)cc23)cc1 [Example 56, 4-{3-[5-Chloro-1-(diphenylmethyl)-2-(2-{[(2-nitrobenzyl)sulfonyl]amino}ethyl)-1H-indol-3-yl]propyl}benzoic acid]
400 nM | O=C(O)c1ccc(OCCc2c(CCNS(=O)(=O)CSc3ccc(F)cc3F)n(C(c3ccccc3)c3ccccc3)c3ccc(Cl)cc23)cc1 [Example 288, 4-[2-(1-benzhydryl-5-chloro-2-{2-[({[(2,4-difluorophenyl)thio]methyl}sulfonyl)amino]ethyl}-1H-indol-3-yl)ethoxy]benzoic acid]
400 nM | O=C(O)c1ccc(CCCc2c(CCNS(=O)(=O)c3cc(Cl)c(F)cc3F)n(C(c3ccccc3)c3ccccc3)c3ccc(Cl)cc23)cc1 [Example 166, 4-{3-[1-benzhydryl-5-chloro-2-(2-{[(5-chloro-2,4-difluorophenyl)sulfonyl]amino}ethyl)-1H-indol-3-yl]propyl}benzoic acid]
350 nM | O=C(O)c1ccc(CCCc2c(CCNS(=O)(=O)c3cccc(OC(F)(F)F)c3)n(C(c3ccccc3)c3ccccc3)c3ccc(Cl)cc23)cc1 [Example 201, 4-(3-{1-Benzhydryl-5-chloro-2-[2-(3-trifluoromethoxy-benzenesulfonylamino)-ethyl]-1H-indol-3-yl}-propyl)-benzoic acid]
360 nM | COc1cc(C)ccc1S(=O)(=O)NCCc1c(CCOc2ccc(C(=O)O)cc2)c2cc(Cl)ccc2n1C(c1ccccc1)c1ccccc1 [Example 171, 4-{2-[1-benzhydryl-5-chloro-2-(2-{[(2-methoxy-4-methylphenyl)sulfonyl]amino}ethyl)-1H-indol-3-yl]ethoxy}benzoic acid]
250 nM | CSc1ccccc1S(=O)(=O)NCCc1c(CCCc2ccc(C(=O)O)cc2)c2cc(Cl)ccc2n1C(c1ccccc1)c1ccccc1 [Example 238]
400 nM | O=C(O)c1ccc(OCCc2c(CCNS(=O)(=O)c3cccc(C(F)(F)F)c3)n(C(c3ccccc3)c3ccccc3)c3ccc(Cl)cc23)cc1 [Example 219, 4-(2-{1-benzhydryl-5-chloro-2-[2-({[3-(trifluoromethyl)phenyl]sulfonyl}amino)ethyl]-1H-indol-3-yl}ethoxy)benzoic acid]
460 nM | O=C(O)c1ccc(OCCc2c(CCNS(=O)(=O)c3cc(Cl)c(F)cc3F)n(C(c3ccccc3)c3ccccc3)c3ccc(Cl)cc23)cc1 [Example 169, 4-{2-[1-Benzhydryl-5-chloro-2-(2-{[(5-chloro-2,4-difluorophenyl)sulfonyl]amino}ethyl)-1H-indol-3-yl]ethoxy}benzoic acid]
100 nM | CCc1cccc(CC)c1S(=O)(=O)NCCc1c(CCOc2ccc(C(=O)O)cc2)c2cc(Cl)ccc2n1C(c1ccccc1)c1ccccc1 [Example 272, 4-{2-[1-benzhydryl-5-chloro-2-(2-{[(2,6-diethylphenyl)sulfonyl]amino}ethyl)-1H-indol-3-yl]ethoxy}benzoic acid]
170 nM | O=C(O)CCc1ccc(S(=O)(=O)CCc2c(CCNS(=O)(=O)Cc3ccccc3)n(C(c3ccccc3)c3ccccc3)c3ccc(Cl)cc23)cc1 [Example 130, 3-(4-{[2-(1-Benzhydryl-2-{2-[(benzylsulfonyl)amino]ethyl}-5-chloro-1H-indol-3-yl)ethyl]sulfonyl}phenyl)propanoic acid]
130 nM | O=C(O)CCc1ccc(S(=O)(=O)CCc2c(CCNS(=O)(=O)Cc3ccc(Cl)c(Cl)c3)n(C(c3ccccc3)c3ccccc3)c3ccc(Cl)cc23)cc1 [Example 129, 3-[4-({2-[1-benzhydryl-5-chloro-2-(2-{[(3,4-dichlorobenzyl)sulfonyl]amino}ethyl)-1H-indol-3-yl]ethyl}sulfonyl)phenyl] propanoic acid]
320 nM | O=C(O)c1ccc(OCCc2c(CCNS(=O)(=O)c3c(Cl)cc(Cl)cc3Cl)n(C(c3ccccc3)c3ccccc3)c3ccc(Cl)cc23)cc1 [Example 161, 4-{2-[1-benzhydryl-5-chloro-2-(2-{[(2,4,6-trichlorophenyl)sulfonyl]amino}ethyl)-1H-indol-3-yl]ethoxy}benzoic acid]
200 nM | Cc1cccc(Cl)c1S(=O)(=O)NCCc1c(CCOc2ccc(C(=O)O)c(F)c2)c2cc(Cl)ccc2n1C(c1ccccc1)c1ccccc1 [Example 191, 4-(2-{1-Benzhydryl-5-chloro-2-[2-(2-chloro-6-methyl-benzenesulfonylamino)-ethyl]-1H-indol-3-yl}-ethoxy)-2-fluoro-benzoic acid]
500 nM | O=C(O)c1ccc(OCCc2c(CCNS(=O)(=O)c3ccc(C(F)(F)F)cc3)n(C(c3ccccc3)c3ccccc3)c3ccc(Cl)cc23)cc1 [Example 229, 4-(2-{1-benzhydryl-5-chloro-2-[2-({[4-(trifluoromethyl)phenyl]sulfonyl}amino)ethyl]-1H-indol-3-yl}ethoxy)benzoic acid]
150 nM | O=C(O)c1ccc(OCCc2c(CCNS(=O)(=O)c3c(F)cccc3C(F)(F)F)n(C(c3ccccc3)c3ccccc3)c3ccc(Cl)cc23)cc1 [Example 269]
110 nM | CCc1cccc(CC)c1S(=O)(=O)NCCc1c(CCCc2ccc(C(=O)O)cc2)c2cc(Cl)ccc2n1C(c1ccccc1)c1ccccc1 [Example 273, 4-{3-[1-benzhydryl-5-chloro-2-(2-{[(2,6-diethylphenyl)sulfonyl]amino}ethyl)-1H-indol-3-yl]propyl}benzoic acid]
690 nM | CS(=O)(=O)c1ccc(S(=O)(=O)NCCc2c(CCOc3ccc(C(=O)O)cc3)c3cc(Cl)ccc3n2C(c2ccccc2)c2ccccc2)cc1 [Example 203, 4-(2-{1-benzhydryl-5-chloro-2-[2({[4-(methylsulfony)phenyl]sulfonyl}amino)ethyl]-1H-indol-3-yl}ethoxy)benzoic acid]
250 nM | Cc1ccc(S(=O)(=O)NCCc2c(CCCc3ccc(C(=O)O)cc3)c3cc(Cl)ccc3n2C(c2ccccc2)c2ccccc2)cc1Cl [Example 261, 4-{3-[1-benzhydryl-5-chloro-2-(2-([(3-chloro-4-methylphenyl)sulfonyl]amino}ethyl)-1H-indol-3-yl]propyl}benzoic acid]
530 nM | Cc1c(Cl)cc(F)cc1S(=O)(=O)NCCc1c(CCOc2ccc(C(=O)O)cc2)c2cc(Cl)ccc2n1C(c1ccccc1)c1ccccc1 [Example 262, 4-{2-[1-benzhydryl-5-chloro-2-(2-{[(3-chloro-5-fluoro-2-methylphenyl)sulfonyl]amino}ethyl)-1H-indol-3-yl]ethoxy}benzoic acid]

Compound | IC50
4-[2-(1-benzhydryl-5-chloro-2-{2-[({2-[(3R,5S)-3,5-dimethylmorpholin-4-yl]ethyl}sulfonyl)amino]ethyl}-1H-indol-3-yl)ethoxy]benzoic acid [Example 250] | 2100 nM
O=C(O)c1ccc(OCCc2c(CCNS(=O)(=O)Cc3ccccc3)n(C(c3ccccc3)c3ccccc3)c3ccc(N4CCOCC4)cc23)cc1 [Example 33, 4-[2-(1-benzhydryl-2-{2-[(benzylsulfonyl)amino]ethyl}-5-morpholin-4-yl-1H-indol-′3-yl)ethoxy]benzoic acid] | 2900 nM
